Read-outs that look alike come from different tables or passages of the source. Each block holds one compound with its values, some of them ahead of it. Bridge positions count the residues as written; N and C are the ends. Square brackets hold non-standard residues; d marks the D form. Peptide text beside a SMILES is read from it. Pro(4R-NH2) = N[C@H]1CN[C@H](C(=O)O)C1; Gly(N-2-aminoethyl) = NCCNCC(=O)O; Hyp = O=C(O)[C@@H]1C[C@@H](O)CN1; Cha = N[C@@H](CC1CCCCC1)C(=O)O; Gly(N(CH2)3NH2) = NCCCNCC(=O)O; Pen = CC(C)(S)[C@H](N)C(=O)O; dDab = NCC[C@@H](N)C(=O)O; Nle = CCCC[C@H](N)C(=O)O; Dab = NCC[C@H](N)C(=O)O
How the values were obtained:
[1] = test system: human red blood cells (hRBC); experiment: Hemolysis of human red blood cells; type: cell-based; settings: red cells of human, 1 h
Summary of the method: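 Percent hemolysis is OD540 of peptide-treated supernatant relative to water-lysed cells. Each peptide was tested at 200 μg/mL against 20% (v/v) washed human erythrocytes. Incubation was 1 h at 37 °C, 300 rpm.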

[2] = test system: Klebsiella pneumoniae SSI3010; settings: SSI3010
Summary of the method: (§1)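 Peptides were made up as 1 mg/mL stocks in sterile water. Colonies in 0.85% saline were set to 0.5 McFarland, then diluted in cation-adjusted Mueller-Hinton II broth to about 5×10^5 CFU/mL. Inoculum was combined with two-fold serial peptide dilutions in water containing 0.002% (final) polysorbate 80.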

[3] = test system: Escherichia coli MCR-1 Af 45
Summary of the method: as §1

[4] = test system: Escherichia coli ATCC 25922; settings: ATCC 25922
Summary of the method: as §1

[5] = Mueller-Hinton broth II, 18-20 hours at 35° C.

SMILES: CC[C@H](C)[C@H](NC(=O)[C@@H](NC(=O)[C@@H]1C[C@@H](N)CN1C(=O)[C@@H](N)C(C)C)[C@@H](C)CC)C(=O)N[C@@H](Cc1ccc(O)cc1)C(=O)N[C@H]1CSSC[C@@H](C(=O)N[C@@H](CCN)C(=O)N[C@@H](CCCNC(=N)N)C(=O)N[C@@H](Cc2ccc(O)cc2)C(=O)O)NC(=O)[C@H](CCCCN)NC(=O)[C@@H](CCN)NC(=O)[C@H]([C@@H](C)O)NC(=O)[C@H](CCN)NC(=O)[C@H](CCCNC(=N)N)NC(=O)[C@H](CC(N)=O)NC1=O [Example 142] (HELM PEPTIDE1{V.[N[C@@H]1C[C@@H](C(=O)[*:2])N([*:1])C1].I.I.Y.C.N.R.[Dab].T.[NCC[C@@H](N[*:1])C(=O)[*:2]].K.C.[Dab].R.Y}$PEPTIDE1,PEPTIDE1,6:R3-13:R3$$$V2.0)
Hemolysis at 0.2 g/L [1]: 0%
Klebsiella pneumoniae SSI3010 MIC [2]: 0.0625 µg/mL
Escherichia coli MCR-1 Af 45 MIC [3, 5]: 0.0625 µg/mL
Escherichia coli ATCC 25922 MIC [4]: 0.125 µg/mL

SMILES: CC[C@H](C)[C@H](NC(=O)[C@@H]1C[C@@H](O)CN1C(=O)[C@@H](N)C(C)C)C(=O)N[C@H](C(=O)N[C@@H](Cc1c[nH]c2ccccc12)C(=O)N[C@@H]1C(=O)N[C@@H](CC(N)=O)C(=O)N[C@@H](CCCNC(=N)N)C(=O)N[C@@H](CCN)C(=O)N[C@@H]([C@@H](C)O)C(=O)N[C@H](CCN)C(=O)N[C@@H](CCCCN)C(=O)N[C@H](C(=O)N[C@@H](CCN)C(=O)N[C@@H](CCCNC(=N)N)C(=O)N[C@@H](Cc2ccc(O)cc2)C(=O)O)CSSC1(C)C)[C@@H](C)O [Example 160] (HELM PEPTIDE1{V.[Hyp].I.T.W.[Pen].N.R.[Dab].T.[NCC[C@@H](N[*:1])C(=O)[*:2]].K.C.[Dab].R.Y}$PEPTIDE1,PEPTIDE1,6:R3-13:R3$$$V2.0)
Hemolysis at 0.2 g/L [1]: 0%
Klebsiella pneumoniae SSI3010 MIC [2]: 0.5 µg/mL
Escherichia coli MCR-1 Af 45 MIC [3, 5]: 0.25 µg/mL
Escherichia coli ATCC 25922 MIC [4]: 0.25 µg/mL

SMILES: CC[C@H](C)[C@H](NC(=O)[C@@H]1C[C@@H](O)CN1C(=O)[C@@H](N)C(C)C)C(=O)N[C@H](C(=O)N[C@@H](Cc1ccc(O)cc1)C(=O)N[C@@H]1C(=O)N[C@@H](CC(N)=O)C(=O)N[C@@H](CCCNC(=N)N)C(=O)N[C@@H](CCN)C(=O)N[C@@H]([C@@H](C)O)C(=O)N[C@H](CCCNC(=N)N)C(=O)N[C@@H](CCCCN)C(=O)N[C@H](C(=O)N[C@@H](CCN)C(=O)N[C@@H](CCCNC(=N)N)C(=O)N[C@@H](Cc2ccc(O)cc2)C(=O)O)CSSC1(C)C)[C@@H](C)O [Example 152] (HELM PEPTIDE1{V.[Hyp].I.T.Y.[Pen].N.R.[Dab].T.[dR].K.C.[Dab].R.Y}$PEPTIDE1,PEPTIDE1,6:R3-13:R3$$$V2.0)
Hemolysis at 0.2 g/L [1]: 0%
Klebsiella pneumoniae SSI3010 MIC [2]: 0.25 µg/mL
Escherichia coli MCR-1 Af 45 MIC [3, 5]: 0.25 µg/mL
Escherichia coli ATCC 25922 MIC [4]: 0.25 µg/mL

SMILES: CCCC[C@H](NC(=O)[C@H](CCCNC(=N)N)NC(=O)[C@H](CCN)NC(=O)[C@@H]1CSSC[C@H](NC(=O)[C@H](Cc2ccc(O)cc2)NC(=O)[C@@H](NC(=O)[C@@H](NC(=O)[C@@H]2CCCN2C(=O)[C@@H](N)C(C)C)[C@@H](C)CC)[C@@H](C)CC)C(=O)N[C@@H](CC(N)=O)C(=O)N[C@@H](CCCNC(=N)N)C(=O)N[C@@H](CCCNC(=N)N)C(=O)N[C@@H]([C@@H](C)O)C(=O)N[C@H](CCN)C(=O)N[C@@H](CCCCN)C(=O)N1)C(=O)O [Example 134] (HELM PEPTIDE1{V.P.I.I.Y.C.N.R.R.T.[NCC[C@@H](N[*:1])C(=O)[*:2]].K.C.[Dab].R.[Nle]}$PEPTIDE1,PEPTIDE1,6:R3-13:R3$$$V2.0)
Hemolysis at 0.2 g/L [1]: 0%
Klebsiella pneumoniae SSI3010 MIC [2]: 0.125 µg/mL
Escherichia coli MCR-1 Af 45 MIC [3, 5]: 0.0625 µg/mL
Escherichia coli ATCC 25922 MIC [4]: 0.0625 µg/mL

The next lines start with results.

Klebsiella pneumoniae SSI3010 MIC [2]: 0.0625 µg/mL
Escherichia coli MCR-1 Af 45 MIC ([3]; MCR-1 Af 45): ≤0.03125 µg/mL
Escherichia coli ATCC 25922 MIC [4]: 0.0625 µg/mL
SMILES: CC[C@H](C)[C@H](NC(=O)CN(CCCN)C(=O)[C@@H](NC(=O)CNCCCN)C(C)C)C(=O)N[C@H](C(=O)N[C@@H](Cc1ccc(O)cc1)C(=O)N[C@@H]1C(=O)N[C@@H](CC(N)=O)C(=O)N[C@@H](CCCNC(=N)N)C(=O)N[C@@H](CCN)C(=O)N[C@@H]([C@@H](C)O)C(=O)N[C@H](CCN)C(=O)N[C@@H](CCCCN)C(=O)N[C@H](C(=O)N[C@@H](CCN)C(=O)N[C@@H](CCCNC(=N)N)C(=O)N[C@@H](CC2CCCCC2)C(=O)O)CSSC1(C)C)[C@@H](C)CC [Example 22, Norn-Val-Norn-Ile-Ile-Tyr-Pen-Asn-Arg-Dab-Thr-^DDab-Lys-Cys-Dab-Arg-Cha] (H-[Gly(N(CH2)3NH2)]V[Gly(N(CH2)3NH2)]IIY[Pen]NR[Dab]T[dDab]KC[Dab]R[Cha]-OH; disulfide 7-14)
Hemolysis at 0.2 g/L [1]: 0%

Klebsiella pneumoniae SSI3010 MIC [2]: 0.25 µg/mL
Escherichia coli MCR-1 Af 45 MIC ([3]; MCR-1 Af 45): 0.125 µg/mL
Escherichia coli ATCC 25922 MIC [4]: 0.25 µg/mL
SMILES: CC[C@H](C)[C@H](NC(=O)[C@@H]1C[C@@H](O)CN1C(=O)[C@@H](NC(=O)CN(CCN)C(=O)CNCCCN)C(C)C)C(=O)N[C@H](C(=O)N[C@@H](Cc1ccc(O)cc1)C(=O)N[C@@H]1C(=O)N[C@@H](CC(N)=O)C(=O)N[C@@H](CCCNC(=N)N)C(=O)N[C@@H](CCN)C(=O)N[C@@H]([C@@H](C)O)C(=O)N[C@H](CCN)C(=O)N[C@@H](CCCCN)C(=O)N[C@H](C(=O)N[C@@H](Cc2ccc(O)cc2)C(=O)N[C@@H](CCCNC(=N)N)C(=O)N[C@@H](Cc2ccc(O)cc2)C(=O)O)CSSC1(C)C)[C@@H](C)O [Example 60, Norn-Ndab-Val-Hyp-Ile-Thr-Tyr-Pen-Asn-Arg-Dab-Thr-^DDab-Lys-Cys-Tyr-Arg-Tyr] (H-[Gly(N(CH2)3NH2)][Gly(N-2-aminoethyl)]V[Hyp]ITY[Pen]NR[Dab]T[dDab]KCYRY-OH; disulfide 8-15; N-terminus assumed)
Hemolysis at 0.2 g/L [1]: 0%

Klebsiella pneumoniae SSI3010 MIC [2]: 0.125 µg/mL
Escherichia coli MCR-1 Af 45 MIC ([3]; MCR-1 Af 45): 0.0625 µg/mL
Escherichia coli ATCC 25922 MIC [4]: 0.0625 µg/mL
SMILES: CCCC[C@H](NC(=O)[C@H](CCCNC(=N)N)NC(=O)[C@H](CCN)NC(=O)[C@@H]1CSSC(C)(C)[C@H](NC(=O)[C@H](Cc2ccc(O)cc2)NC(=O)[C@@H](NC(=O)[C@@H](NC(=O)[C@@H]2C[C@@H](N)CN2C(=O)[C@@H](NC(=O)[C@@H]2C[C@@H](N)CN2)C(C)C)[C@@H](C)CC)[C@@H](C)O)C(=O)N[C@@H](CC(N)=O)C(=O)N[C@@H](CCCNC(=N)N)C(=O)N[C@@H](CCN)C(=O)N[C@@H]([C@@H](C)O)C(=O)N[C@H](CCN)C(=O)N[C@@H](CCCCN)C(=O)N1)C(=O)O [Example 9, Pro((4R)NH2)-Val-Pro((4R)NH2)-Ile-Thr-Tyr-Pen-Asn-Arg-Dab-Thr-^DDab-Lys-Cys-Dab-Arg-Nle] (H-[Pro(4R-NH2)]V[Pro(4R-NH2)]ITY[Pen]NR[Dab]T[dDab]KC[Dab]R[Nle]-OH; disulfide 7-14)
Hemolysis at 0.2 g/L [1]: 0%

Klebsiella pneumoniae SSI3010 MIC [2]: 0.0625 µg/mL
Escherichia coli MCR-1 Af 45 MIC ([3]; MCR-1 Af 45): ≤0.03125 µg/mL
Escherichia coli ATCC 25922 MIC [4]: 0.0625 µg/mL
SMILES: CC[C@H](C)[C@H](NC(=O)[C@@H](NC(=O)[C@@H]1C[C@@H](N)CN1C(=O)[C@@H](NC(=O)[C@@H]1CCCN1)C(C)C)[C@@H](C)CC)C(=O)N[C@@H](Cc1ccc(O)cc1)C(=O)N[C@@H]1C(=O)N[C@@H](CC(N)=O)C(=O)N[C@@H](CCCNC(=N)N)C(=O)N[C@@H](CCN)C(=O)N[C@@H]([C@@H](C)O)C(=O)N[C@H](CCN)C(=O)N[C@@H](CCCCN)C(=O)N[C@H](C(=O)N[C@@H](CCN)C(=O)N[C@@H](CCCNC(=N)N)C(=O)N[C@@H](CC2CCCCC2)C(=O)O)CSSC1(C)C [Example 19, Pro-Val-Pro((4R)NH2)-Ile-Ile-Tyr-Pen-Asn-Arg-Dab-Thr-^DDab-Lys-Cys-Dab-Arg-Cha] (HELM PEPTIDE1{P.V.[N[C@@H]1C[C@@H](C(=O)[*:2])N([*:1])C1].I.I.Y.[Pen].N.R.[Dab].T.[NCC[C@@H](N[*:1])C(=O)[*:2]].K.C.[Dab].R.[Cha]}$PEPTIDE1,PEPTIDE1,7:R3-14:R3$$$V2.0)
Hemolysis at 0.2 g/L [1]: 0%

Klebsiella pneumoniae SSI3010 MIC [2]: 0.125 µg/mL
Escherichia coli MCR-1 Af 45 MIC ([3]; MCR-1 Af 45): 0.0625 µg/mL
Escherichia coli ATCC 25922 MIC [4]: 0.25 µg/mL
SMILES: CC[C@H](C)[C@H](NC(=O)CN(CCN)C(=O)[C@@H](NC(=O)[C@@H]1C[C@@H](O)CN1C(=O)[C@H](CCCCN)NC(=O)[C@@H](N)CCCCN)C(C)C)C(=O)N[C@H](C(=O)N[C@@H](Cc1ccc(O)cc1)C(=O)N[C@@H]1C(=O)N[C@@H](CC(N)=O)C(=O)N[C@@H](CCCNC(=N)N)C(=O)N[C@@H](CCN)C(=O)N[C@@H]([C@@H](C)O)C(=O)N[C@H](CCN)C(=O)N[C@@H](CCCCN)C(=O)N[C@H](C(=O)N[C@@H](Cc2ccc(O)cc2)C(=O)N[C@@H](CCCNC(=N)N)C(=O)N[C@@H](Cc2ccc(O)cc2)C(=O)O)CSSC1(C)C)[C@@H](C)O [Example 129, Lys-Lys-Hyp-Val-Ndab-Ile-Thr-Tyr-Pen-Asn-Arg-Dab-Thr-^DDab-Lys-Cys-Tyr-Arg-Tyr] (HELM PEPTIDE1{K.K.[Hyp].V.[NCCN(CC(=O)[*:2])[*:1]].I.T.Y.[Pen].N.R.[Dab].T.[NCC[C@@H](N[*:1])C(=O)[*:2]].K.C.Y.R.Y}$PEPTIDE1,PEPTIDE1,9:R3-16:R3$$$V2.0)
Hemolysis at 0.2 g/L [1]: 0%
